Data: US20230212239A1, “INHIBITORS OF CBL AUTOINHIBITION AND RELATED METHODS” (THE HOSPITAL FOR SICK CHILDREN, priority 2020, published 2023)
Positions count from the first letter of the chain named. Numbers in names are those of the source.

T1: purified recombinant CBL protein containing the TKBD-LHR-RING region (Homo sapiens, UniProt P22681)
T1 construct: Residues 25-357 and 2-436 of CBL were cloned in frame into pGEX4T-1; GST (N); made in house
T1 sequence (P22681 2-436): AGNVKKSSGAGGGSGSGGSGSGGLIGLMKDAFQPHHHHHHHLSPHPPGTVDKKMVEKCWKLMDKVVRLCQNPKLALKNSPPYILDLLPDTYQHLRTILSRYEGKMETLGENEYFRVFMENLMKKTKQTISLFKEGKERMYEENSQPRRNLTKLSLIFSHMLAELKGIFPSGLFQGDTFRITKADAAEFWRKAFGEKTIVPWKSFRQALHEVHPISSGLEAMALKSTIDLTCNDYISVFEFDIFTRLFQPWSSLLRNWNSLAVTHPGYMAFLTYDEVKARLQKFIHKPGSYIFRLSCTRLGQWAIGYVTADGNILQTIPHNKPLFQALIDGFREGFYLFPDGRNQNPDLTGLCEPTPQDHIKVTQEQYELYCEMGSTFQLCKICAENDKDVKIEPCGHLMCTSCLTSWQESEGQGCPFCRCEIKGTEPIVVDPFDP

B1: SLAP L241R: mouse SLAP interface mutant analogous to SLAP2 L241R (protein, UniProt Q60898 2-281, looked up, variant L241R)
Src-like-adapter: GNSMKSTSPPSERPLSSSEGLESDFLAVLTDYPSPDISPPIFRRGEKLRVISDEGGWWKAISLSTGRESYIPGICVARVYHGWLFEGLGRDKAEELLQLPDTKIGSFMIRESETKKGFYSLSVRHRQVKHYRIFRLPNNWYYISPRLTFQCLEDLVTHYSEVADGLCCVLTTPCLAQNIPAPTSHPSPCTSPGSPVTLRQKTFDWKRVSRLQEGSEGAENPLRVDESLFSYGLRESIASYRSLTGDDSSSFDRKKKSLSLMYTGSKRKSSFFSAPQYFED
B2: SLAP2 L241R: SLAP2 interface point mutant Leu241 to Arg (protein)
chain: EAERSKATAVALGSFPAGGPAELSLRLGEPLTIVSEDGDWWTVLSEVSGREYNIPSVHVAKVSHGWLYEGLSREKAEELLLLPGNPGGAFLIRESQTRRGSYSLSVRLSRPASWDRIRHYRIHCLDNGWLYISPRLTFPSLQALVDHYSELADDICCLLKEPCVLQRAGPLPGKDIPLPVTVQRTPLNWKELDSSLLFSEAATGEESLLSEGRRESLSFYISLNDEAVSLDDA
modifications: left off: large carriers; small tags and cut ends
notes: SLAP2 interface point mutant Leu241 to Arg
B3: SLAP2 S244E: SLAP2 interface point mutant Ser244 to Glu (protein)
chain: B2 chain with R213L, S216E
modifications: left off: large carriers; small tags and cut ends
notes: SLAP2 interface point mutant Ser244 to Glu
B4: SLAP2 L245P: SLAP2 point mutant Leu245 to proline, expected to interrupt the helix (protein)
chain: B2 chain with R213L, L217P
modifications: left off: large carriers; small tags and cut ends
notes: SLAP2 point mutant Leu245 to proline, expected to interrupt the helix
B5: SLAP2 G240R: SLAP2 interface point mutant Gly240 to Arg (protein)
chain: B2 chain with G212R, R213L
modifications: left off: large carriers; small tags and cut ends
notes: SLAP2 interface point mutant Gly240 to Arg

Legend:
[1] = target: T1, purified recombinant CBL protein containing the TKBD-LHR-RING region; experiment: High-throughput in vitro autoubiquitination assay (modified ELISA-based LifeSensors assay, 384 well), hit validation; format: biochemical; conditions: validation: triplicate wells; confirmed at percent activation cutoff of at least 20% in at least 2 wells
Description: As an approach to identify novel compounds that mimic SLAP2 binding, and thus stimulate CBL E3 ligase activity, an in vitro autoubiquitination assay was developed based on a modification of a commercially available ELISA based assay (LifeSensors, Inc) and adapted to a 384 well high throughput screen (HTS) format (FIG. 13). The assay uses purified recombinant CBL protein containing the TKBD-LHR-RING region and has been optimized using reference controls; phosphorylated CBL, and CBL with or without addition of purified pSLAP2. Reaction components contained in a master mix (E1, E2, free Ub), test compound and purified CBL are free in solution allowing native protein interactions, and polyubiquitin chains are captured by an immobilized ubiquitin binding domain and quantified using an anti-ubiquitin antibody detection method.
Peptidomimetic Screen: A library of 3000 α-helix and β/γ-turn peptidomimetic compounds were screened across 10 384 well plates. A primary screen yielded 14 hits from the OICR Peptidomimetic library (0.47% hit rate). A hit was defined as any compound producing a luminescent signal at least 4 Standard Deviations from the mean of all compounds on the plate (FIG. 14).
Validation experiment: Triplicate wells of hit compounds were randomly dispersed on plates and hits were confirmed based on a percent activation cutoff of at least 20% in at least 2 wells.

CBL TKBD = experiment: Co-purification of CBL TKBD with Trx-His-SLAP2/SLAP (Duet co-expression, Ni-NTA, SDS-PAGE); format: binding; conditions: low salt concentration (0.15 M NaCl)
Description: To validate the CBL/SLAP2 binding interface, a series of mutants in a Duet co-expression vector system was generated for co-purification trials. The SLAP2 sequence was preceded by thioredoxin (Trx) and His-tag fusion proteins to allow co-purification of CBL TKBD that was bound to Trx-His-SLAP2 during the initial affinity chromatography purification step. Surface residues deemed to be important to the CBL/SLAP2 interface, but not CBL function or folding, were mutated to disrupt CBL/SLAP2 binding (FIG. 5C and FIG. 6). In our structure, SLAP2 Gly240 locates close to CBL Met269 and Ala270, such that mutation to a bulky Arg residue (G240R) could cause sterical constraints. Similarly, SLAP2 Leu241 is situated in a hydrophobic cleft composed of CBL Ala223, Trp258, and Val263; mutation to Arg (L241R) was predicted to disturb this binding pocket. Mutation of CBL Ala223 to Arg (A223R) would likewise disrupt this pocket, with CBL/SLAP2 double mutant A223R/L241R predicted to drastically disturb binding through sterical constraints and charge repulsion. (For clarity, CBL mutations herein are indicated in italics, SLAP2 in regular font.) Similarly, single or double mutation of CBL Ser226 or SLAP2 Ser244, whose side chain hydroxyl groups are in close proximity to one another, to charged Glu residues (S226E and S244E) was anticipated to interfere with CBL/SLAP2 binding. Finally, given that SLAP2 binds CBL as an α-helix, mutation of Leu245, located in the center of this α-helix, to proline (L245P) was expected to interrupt the helical structure and thus prevent SLAP2 binding. […] However, double mutation of the CBL/SLAP2 interface (A223R/L241R and S226E/S244E; FIG. 5D, lower panel) was not tolerated, even at low salt concentration.
For co-purification of CBL and SLAP2/SLAP, Duet-His-hSLAP2-CBL 29-261 Δ198-229 and 29-254 Δ198-229, Duet-His-Δlinker-hSLAP2-CBL WT and point mutants, and Duet-His-mSLAP-CBL WT and point mutants were overexpressed in E. coli BL-21 as above or TKB1 competent cells (Stratagene) as per manufacturer’s instructions, and cells harvested as above (except 100 mL of LB, overnight at 16-18° C., and 0.35-0.5 mM IPTG induction). Cell pellets were resuspended in either high or low salt (as for high salt except 25 mM HEPEs pH 7.5, 150 mM NaCl) lysis buffer and purified as above on Ni-NTA agarose (Qiagen) with wash buffer (25 mM HEPEs pH 7.5, 150 mM NaCl, 2% glycerol, 20 mM imidazole, 10 mM βME). Bead slurry was mixed with SDS 2X loading buffer (125 mM Tris pH 6.8, 4% SDS, 20% glycerol, 0.715 M βME, bromophenol blue), boiled, and analyzed by 10 or 12.5% SDS-PAGE, stained with Coomassie blue.

Molecule | confirmed hit: CBL activation [1] | CBL TKBD co-purification (CBL TKBD)
O=S(=O)(Nc1ccc(OC(F)(F)F)cc1)c1ccc(-c2cnc(C3CCC3)o2)s1 [Hit 6, 5-(2-cyclobutyl-1,3-oxazol-5-yl)-N-[4-(trifluoromethoxy)phenyl]thiophene-2-sulfonamide] | active | –
Cc1cc2c(cc1C(=O)NCc1c(F)cccc1Cl)OCCCO2 [Hit 1, N-[(2-chloro-6-fluorophenyl)methyl]-8-methyl-3,4-dihydro-2H-1,5-benzodioxepine-7-carboxamide] | active | –
O=S(=O)(Nc1ccc(Cl)c(C(F)(F)F)c1)c1cc(-c2noc(C3CCC3)n2)cs1 [Hit 5, N-[4-chloro-3-(trifluoromethyl)phenyl]-4-(5-cyclobutyl-1,2,4-oxadiazol-3-yl)thiophene-2-sulfonamide] | active | –
O=S(=O)(Nc1cccc(Br)c1)c1ccc(-c2nnc(C3CCC3)o2)s1 [Hit 2, N-(3-bromophenyl)-5-(5-cyclobutyl-1,3,4-oxadiazol-2-yl)thiophene-2-sulfonamide] | active | –
COc1ccc(CNC(=O)C2(C)CCCN(S(=O)(=O)c3cccc(C(F)(F)F)c3)C2)cc1 (stereo not drawn) [Hit 4, N-[(4-methoxyphenyl)methyl]-3-methyl-1-[3-(trifluoromethyl)benzenesulfonyl]piperidine-3-carboxamide] | active | –
COc1ccc(S(=O)(=O)Nc2cccn3c(C4CCC4)nnc23)cc1Cl [Hit 3, 3-chloro-N-{3-cyclobutyl-[1,2,4]triazolo[4,3-a]pyridin-8-yl}-4-methoxybenzene-1-sulfonamide] | active | –
Cc1ccc(S(=O)(=O)N2C(=O)CCC2C(=O)Nc2cccc3ccccc23)cc1 (stereo not drawn) [Hit 7, 1-(4-methylbenzenesulfonyl)-N-(naphthalen-1-yl)-5-oxopyrrolidine-2-carboxamide] | active | –
O=C(NCC(=O)N1CCN(c2ccc(-c3noc(C4CCC4)n3)cc2)CC1)c1ccco1 [Hit 9, N-(2-{4-[4-(5-cyclobutyl-1,2,4-oxadiazol-3-yl)phenyl]piperazin-1-yl}-2-oxoethyl)furan-2-carboxamide] | active | –
CC(C)OCCCNC(=O)c1cnc2scc(-c3ccccc3)n2c1=O [Hit 10, 5-oxo-3-phenyl-N-[3-(propan-2-yloxy)propyl]-5H-[1,3]thiazolo[3,2-a]pyrimidine-6-carboxamide] | active | –
Cc1ccc(CN2CCN(CC(=O)Nc3ccc(C(C)C)cc3)C(=O)C2=O)cc1 [Hit 8, 2-{4-[(4-methylphenyl)methyl]-2,3-dioxopiperazin-1-yl}-N-[4-(propan-2-yl)phenyl]acetamide] | active | –
B1 | – | abrogated CBL co-purification
B2 | – | abrogated CBL co-purification
B3 | – | tolerated
B4 | – | abrogated CBL co-purification
B5 | – | tolerated
